Biological target: T1, Monocarboxylate transporter 1 (Rattus norvegicus) (UniProt P53987)
T1 sequence (whole entry): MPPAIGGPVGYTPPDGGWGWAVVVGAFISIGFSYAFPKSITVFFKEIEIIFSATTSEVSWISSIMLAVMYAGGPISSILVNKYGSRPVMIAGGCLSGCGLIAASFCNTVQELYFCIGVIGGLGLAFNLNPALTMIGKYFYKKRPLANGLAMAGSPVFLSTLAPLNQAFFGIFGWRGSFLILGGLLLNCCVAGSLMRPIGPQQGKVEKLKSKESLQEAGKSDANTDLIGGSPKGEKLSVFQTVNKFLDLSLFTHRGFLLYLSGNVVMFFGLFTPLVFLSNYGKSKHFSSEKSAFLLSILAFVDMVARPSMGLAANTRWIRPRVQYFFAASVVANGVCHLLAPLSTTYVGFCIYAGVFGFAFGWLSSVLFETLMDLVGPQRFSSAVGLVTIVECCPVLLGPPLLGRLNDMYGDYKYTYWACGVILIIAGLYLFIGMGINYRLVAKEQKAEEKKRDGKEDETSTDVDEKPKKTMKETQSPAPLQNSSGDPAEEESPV
Test: TP_TRANSPORTER: uptake in Xenopus laevis oocytes
Format: functional, cell-based
Conditions: Oocyte

Activity | SMILES
substrate [+] | C[C@@H](O)C(=O)O
substrate [+] | C[C@H](O)C(=O)O

Source: ChEMBL document CHEMBL2073919, “cDNA cloning and functional characterization of rat intestinal monocarboxylate transporter” (Biochem Biophys Res Commun, 1995)
